The values below come from ChEMBL document CHEMBL4831514, “Novel betulin dicarboxylic acid ester derivatives as potent antiviral agents: Design, synthesis, biological evaluation, structure-activity relationship and in-silico study” (Eur J Med Chem, 2021).

Activity calls are given as the source filed them. The calls are words filed in the database; no cut-off is given here.

The subject of this test is Vesicular stomatitis virus. In words: Antiviral activity against Vesicular stomatitis virus Indiana infected in A549 cells assessed as inhibition of viral adsorption at early stage of replication treated for 1 hr during viral infection followed by replacement with fresh medium and measured after 48 hrs by MTT assay. The class given is functional, organism-based. For orientation: Tetrazolium assays rely on reduction of a dye to a coloured formazan, in cell work by metabolically active cells.

Regarding `C=C(C)[C@@H]1CC[C@]2(COC(=O)CCC(=O)O)CC[C@]3(C)[C@H](CC[C@@H]4[C@@]5(C)CCC(O)C(C)(C)[C@@H]5CC[C@]43C)[C@@H]12` (single isomer, unassigned), the outcome was inactive.

In the case of `NC(=O)c1ncn([C@@H]2O[C@H](CO)[C@@H](O)[C@H]2O)n1` [RIBAVIRIN], the outcome was inactive.

As for `C=C(C)[C@@H]1CC[C@]2(COC(=O)c3cccc(C(=O)N4CCOCC4)c3)CC[C@]3(C)[C@H](CC[C@@H]4[C@@]5(C)CC[C@H](O)C(C)(C)[C@@H]5CC[C@]43C)[C@@H]12`, the outcome was inactive.

Turning to `Nc1ccn(C[C@@H](CO)OCP(=O)(O)O)c(=O)n1.O.O` [CIDOFOVIR], the outcome was inactive.

As for `C=C(C)[C@@H]1CCC2(COC(=O)CCCCCCCCCC(=O)N3CCSCC3)CC[C@]3(C)[C@H](CC[C@@H]4[C@@]5(C)CC[C@H](O)C(C)(C)[C@@H]5CC[C@]43C)[C@@H]12` (single isomer, unassigned), the outcome was inactive.

Regarding `C=C(C)[C@@H]1CC[C@]2(COC(=O)CCCCCCCCCC(=O)N3CCOCC3)CC[C@]3(C)[C@H](CC[C@@H]4[C@@]5(C)CC[C@H](O)C(C)(C)[C@@H]5CC[C@]43C)[C@@H]12`, the result was inactive.

Regarding `C=C(C)[C@@H]1CC[C@]2(COC(=O)CCC(=O)N3CCCCC3)CC[C@]3(C)[C@H](CC[C@@H]4[C@@]5(C)CCC(O)C(C)(C)[C@@H]5CC[C@]43C)[C@@H]12` (single isomer, unassigned), the outcome was inactive.

Take `C=C(C)[C@@H]1CC[C@]2(COC(=O)CCCC(=O)N3CCCCC3)CC[C@]3(C)[C@H](CC[C@@H]4[C@@]5(C)CC[C@H](O)C(C)(C)[C@@H]5CC[C@]43C)[C@@H]12`: the outcome was inactive.

As to `C=C(C)[C@@H]1CC[C@]2(COC(=O)CCC(=O)N3CCOCC3)CC[C@]3(C)[C@H](CC[C@@H]4[C@@]5(C)CC[C@H](O)C(C)(C)[C@@H]5CC[C@]43C)[C@@H]12`, the result was inactive.

For the molecule `C#CC1(NC(=O)/C(C)=C/C(=O)OC[C@]23CC[C@@H](C(=C)C)[C@@H]2[C@H]2CC[C@@H]4[C@@]5(C)CC[C@H](O)C(C)(C)[C@@H]5CC[C@@]4(C)[C@]2(C)CC3)CCCCC1`, the result was inactive.

With `C#CCNC(=O)/C(C)=C/C(=O)OC[C@]12CC[C@@H](C(=C)C)[C@@H]1[C@H]1CC[C@@H]3[C@@]4(C)CC[C@H](O)C(C)(C)[C@@H]4CC[C@@]3(C)[C@]1(C)CC2`, the result was inactive.

Consider `C=C(C)[C@@H]1CC[C@]2(COC(=O)c3ccccc3C(=O)N3CCCCC3)CC[C@]3(C)[C@H](CC[C@H]4C3(C)CC[C@H]3C(C)(C)[C@@H](O)CC[C@@]34C)[C@@H]12` (single isomer, unassigned), for which the result was inactive.

On to `C=C(C)[C@@H]1CC[C@]2(COC(=O)/C=C(\C)C(=O)O)CC[C@]3(C)[C@H](CC[C@@H]4[C@@]5(C)CC[C@H](O)C(C)(C)[C@@H]5CC[C@]43C)[C@@H]12`, for which the result was inactive.

For the molecule `C#CC1(NC(=O)CCC(=O)OC[C@]23CC[C@@H](C(=C)C)[C@@H]2[C@H]2CC[C@@H]4[C@@]5(C)CC[C@H](O)C(C)(C)[C@@H]5CC[C@@]4(C)[C@]2(C)CC3)CCCCC1`, the outcome was inactive.

In the case of `C=C(C)[C@@H]1CC[C@]2(COC(=O)CCCC(=O)N3CCOCC3)CC[C@]3(C)[C@H](CC[C@@H]4[C@@]5(C)CC[C@H](O)C(C)(C)[C@@H]5CC[C@]43C)[C@@H]12`, the result was inactive.

On to `C=C(C)[C@@H]1CC[C@]2(COC(=O)c3ccccc3C(=O)N3CCOCC3)CC[C@]3(C)[C@H](CC[C@@H]4[C@@]5(C)CC[C@H](O)C(C)(C)[C@@H]5CC[C@]43C)[C@@H]12`, for which the result was inactive.

Take `C=C(C)[C@@H]1CC[C@]2(COC(=O)CCCCCCCCCC(=O)N3CCCCC3)CC[C@]3(C)[C@H](CC[C@@H]4[C@@]5(C)CC[C@H](O)C(C)(C)[C@@H]5CC[C@]43C)[C@@H]12`: the result was inactive.

Take `C=C(C)[C@@H]1CC[C@]2(COC(=O)c3cccc(C(=O)O)c3)CC[C@]3(C)[C@H](CC[C@@H]4[C@@]5(C)CC[C@H](O)C(C)(C)[C@@H]5CC[C@]43C)[C@@H]12`: the result was inactive.

As to `C=C(C)[C@@H]1CC[C@]2(COC(=O)/C=C/C(=O)O)CC[C@]3(C)[C@H](CC[C@@H]4[C@@]5(C)CC[C@H](O)C(C)(C)[C@@H]5CC[C@]43C)[C@@H]12`, the result was inactive.

Take `C#CCNC(=O)c1ccccc1C(=O)OC[C@]12CC[C@@H](C(=C)C)[C@@H]1[C@H]1CC[C@@H]3[C@@]4(C)CC[C@H](O)C(C)(C)[C@@H]4CC[C@@]3(C)[C@]1(C)CC2`: the outcome was inactive.

In the case of `C=C(C)[C@@H]1CC[C@]2(COC(=O)c3cccc(C(=O)N4CCCCC4)c3)CC[C@]3(C)[C@H](CC[C@@H]4[C@@]5(C)CC[C@H](O)C(C)(C)[C@@H]5CC[C@]43C)[C@@H]12`, the outcome was inactive.

As for `Nc1nc2c(ncn2COCCO)c(=O)[nH]1` [ACYCLOVIR], the result was inactive.

As for `C#CCNC(=O)CCCCCCCCCC(=O)OC[C@]12CC[C@@H](C(=C)C)[C@@H]1[C@H]1CC[C@@H]3[C@@]4(C)CC[C@H](O)C(C)(C)[C@@H]4CC[C@@]3(C)[C@]1(C)CC2`, the result was inactive.

`C=C(C)[C@@H]1CC[C@]2(COC(=O)c3cccc(C(=O)N4CCSCC4)c3)CC[C@]3(C)[C@H](CC[C@@H]4[C@@]5(C)CC[C@H](O)C(C)(C)[C@@H]5CC[C@]43C)C12` (single isomer, unassigned): the result was inactive.

With `C=C(C)[C@@H]1CC[C@]2(COC(=O)c3ccccc3C(=O)O)CC[C@]3(C)[C@H](CC[C@@H]4[C@@]5(C)CC[C@H](O)C(C)(C)[C@@H]5CC[C@]43C)[C@@H]12`, the result was inactive.

Consider `C#CCNC(=O)c1cccc(C(=O)OC[C@]23CC[C@@H](C(=C)C)[C@@H]2[C@H]2CC[C@@H]4C5(C)CC[C@H](O)C(C)(C)[C@@H]5CC[C@@]4(C)[C@]2(C)CC3)c1` (single isomer, unassigned), for which the outcome was inactive.
